Measurements taken from patent US4444786A, “Carbamate derivatives, insecticidal, miticidal or nematocidal compositions containing the same, and process for preparing the same” (priority 1981, dated 1984).

Legend:
[1] = test system: green rice leafhopper (Nephotettix cincticeps); assay: Test Example 2: mortality of female adults of green rice leafhopper on paddy rice, three days; type: in vivo; details: 72 h, 3 days; for mortality at 200 ppm: 200 ppm active ingredient; for mortality at 400 ppm: 400 ppm active ingredient; for mortality at 800 ppm: 800 ppm active ingredient
Procedure: An emulsion of specified concentration was prepared from a 50% wettable powder of the compound to be tested and applied to the leaves of paddy rice (one-month-old seedlings) planted in a pot to fully wet the leaves. After air-drying the emulsion, the pot was covered with a net cage, into which 10 female adults of green rice leafhopper (Nephotettix cincticeps) were released. The compound of each specified concentration was tested on two pots.

[2] = test system: house fly (Musca domestica); assay: Test Example 4: local application to house fly, LD50 by Probit method; type: in vivo; details: topical, 24 hours
Procedure: The compound to be tested was dissolved in a predetermined amount of acetone. The solution was diluted to various concentrations and locally applied to house fly (Musca domestica).

[3] = test system: tobacco cutworm (Spodoptera litura); assay: Test Example 1: mortality of third-instar larvae of tobacco cutworm on cabbage, three days; type: in vivo; details: 72 h, 3 days; for mortality at 100 ppm: 100 ppm active ingredient; for mortality at 200 ppm: 200 ppm active ingredient; for mortality at 400 ppm: 400 ppm active ingredient
Procedure: Ten third-instar larvae of tobacco cutworm (Spodoptera litura) were placed on a cabbage (one-month-old seedlings) planted in a pot, and a 50% emulsion of the compound to be tested was diluted to a specified concentration and applied to the leaves of the plant to fully wet them. The test compound of each specified concentration was tested on two pots.

[4] = Test Example 5: acute toxicity by oral administration against male mice; details: mouse, in vivo, seventh day, Litchfield-Wilcoxon method
Procedure: The compound to be tested was evaluated in terms of acute toxicity by oral administration against male mice.

[5] = test system: southern root-knot nematode (Meloidogyne incognita); assay: Test Example 3: formation of nodules on tomato roots in soil contaminated with nematode larvae, one month; type: in vivo
Description: Granules containing 10% of the compound to be tested were mixed, in a specified amount, with soil contaminated with larvae of southern root-knot nematode (Meloidogyne incognita), and tomato seedlings were immediately transplanted in the soil. One month later, the roots of the plant were checked for the formation of nodules. Two test areas, 2×2 m^2 each, were used for the compound as applied in each specified amount.

noxious insects = details: known, background; cited from earlier work
warm-blooded animals = details: known, background; cited from earlier work

Work on CCOC(=O)CCN(SN(C)C(=O)ON=C(C)SC)c1cccc(C)c1 [Example 10] yielded a mortality at 200 ppm [1] of 90%, a mortality at 400 ppm [1] of 100% and a mortality at 800 ppm [1] of 100%. It also gave an LD50 [2] of 29.5 mg/kg, a mortality at 100 ppm [3] of 60% and a mortality at 200 ppm [3] of 85%. The mortality at 400 ppm [3] was 100% and the LD50 at 168 h [4] was 250 mg/kg.
CCCN(CCC(=O)OCC)SN(C)C(=O)ON=C(C)SC [Example 4] showed a mortality at 200 ppm [1] of 95%, a mortality at 400 ppm [1] of 100% and a mortality at 800 ppm [1] of 100%. It also gave an LD50 [2] of 11 mg/kg, a mortality at 100 ppm [3] of 100% and a mortality at 200 ppm [3] of 100%. The mortality at 400 ppm [3] was 100% and the LD50 at 168 h [4] was 150 mg/kg.
Work on CCOC(=O)CCN(Cc1ccc(Cl)cc1)SN(C)C(=O)ON=C(C)SC [Example 20] yielded a mortality at 200 ppm [1] of 80%, a mortality at 400 ppm [1] of 100% and a mortality at 800 ppm [1] of 100%. The LD50 [2] was 18.9 mg/kg, the mortality at 100 ppm [3] was 75% and the mortality at 200 ppm [3] was 80%. The mortality at 400 ppm [3] was 100% and the LD50 at 168 h [4] was 250 mg/kg.
With CCOC(=O)CCN(SN(C)C(=O)ON=C(C)SC)c1ccc(Cl)cc1 [Example 9] the mortality at 200 ppm [1] was 70%, the mortality at 400 ppm [1] was 100% and the mortality at 800 ppm [1] was 100%. The LD50 [2] was 14 mg/kg, the mortality at 100 ppm [3] was 50% and the mortality at 200 ppm [3] was 70%. It also gave a mortality at 400 ppm [3] of 100% and an LD50 at 168 h [4] of 250 mg/kg.
With CCOC(=O)CCN(CC(C)C)SN(C)C(=O)ON=C(C)SC [Example 6] the mortality at 200 ppm [1] was 80%, the mortality at 400 ppm [1] was 90% and the mortality at 800 ppm [1] was 100%. For the same molecule, the LD50 [2] was 7.6 mg/kg, the mortality at 100 ppm [3] was 70% and the mortality at 200 ppm [3] was 95%. The mortality at 400 ppm [3] was 100% and the LD50 at 168 h [4] was 170 mg/kg.
Molecule CCCCCCN(CCC(=O)OCC)SN(C)C(=O)ON=C(C)SC [Example 16] has a mortality at 200 ppm [1] of 75%, a mortality at 400 ppm [1] of 100% and a mortality at 800 ppm [1] of 100%. The LD50 [2] was 32.5 mg/kg, the mortality at 100 ppm [3] was 70% and the mortality at 200 ppm [3] was 80%. For the same molecule, the mortality at 400 ppm [3] was 100% and the LD50 at 168 h [4] was 300 mg/kg.
In the case of CCOC(=O)CCN(SN(C)C(=O)ON=C(C)SC)C(C)C [Example 1, S-methyl N-[{N-methyl-N-(N-isopropyl-N-ethoxycarbonylethylaminosulfenyl)carbamoyl}oxy]thioacetamidate], the mortality at 200 ppm [1] is reported as 60%, the mortality at 400 ppm [1] is reported as 80% and the mortality at 800 ppm [1] is reported as 100%. For the same molecule, the LD50 [2] was 16 mg/kg, the mortality at 100 ppm [3] was 85% and the mortality at 200 ppm [3] was 90%. The mortality at 400 ppm [3] was 100% and the LD50 at 168 h [4] was 150 mg/kg.
Work on CCOC(=O)CCN(SN(C)C(=O)ON=C(C)SC)C1CCCCC1 [Example 7] yielded a mortality at 200 ppm [1] of 65%, a mortality at 400 ppm [1] of 100% and a mortality at 800 ppm [1] of 100%. It also gave an LD50 [2] of 18.3 mg/kg, a mortality at 100 ppm [3] of 95% and a mortality at 200 ppm [3] of 100%. For the same molecule, the mortality at 400 ppm [3] was 100% and the LD50 at 168 h [4] was 200 mg/kg.
CCOC(=O)CCN(Cc1ccccc1)SN(C)C(=O)ON=C(C)SC [Example 8] gave a mortality at 200 ppm [1] of 75%, a mortality at 400 ppm [1] of 100% and a mortality at 800 ppm [1] of 100%. It also gave an LD50 [2] of 35.2 mg/kg, a mortality at 100 ppm [3] of 100% and a mortality at 200 ppm [3] of 100%. For the same molecule, the mortality at 400 ppm [3] was 100% and the LD50 at 168 h [4] was 250 mg/kg.
In the case of CCOC(=O)CN(CC(=O)OCC)SN(C)C(=O)ON=C(C)SC [Example 11], the mortality at 200 ppm [1] is reported as 60%, the mortality at 400 ppm [1] is reported as 80% and the mortality at 800 ppm [1] is reported as 100%. It also gave an LD50 [2] of 47.3 mg/kg, a mortality at 100 ppm [3] of 45% and a mortality at 200 ppm [3] of 75%. For the same molecule, the mortality at 400 ppm [3] was 100% and the LD50 at 168 h [4] was 300 mg/kg.
Molecule CCCCOC(=O)CCN(SN(C)C(=O)ON=C(C)SC)C(C)C [Example 15] has a mortality at 200 ppm [1] of 80%, a mortality at 400 ppm [1] of 100% and a mortality at 800 ppm [1] of 100%. The LD50 [2] was 21.3 mg/kg, the mortality at 100 ppm [3] was 75% and the mortality at 200 ppm [3] was 95%. For the same molecule, the mortality at 400 ppm [3] was 100% and the LD50 at 168 h [4] was 280 mg/kg.
For CCCCN(CCC(=O)OC)SN(C)C(=O)ON=C(C)SC [Example 5], the mortality at 200 ppm [1] was 95%, the mortality at 400 ppm [1] was 100% and the mortality at 800 ppm [1] was 100%. It also gave an LD50 [2] of 5 mg/kg, a mortality at 100 ppm [3] of 100% and a mortality at 200 ppm [3] of 100%. It also gave a mortality at 400 ppm [3] of 100% and an LD50 at 168 h [4] of 150 mg/kg.
With CCCCC(CC)COC(=O)CCN(SN(C)C(=O)ON=C(C)SC)C(C)C (stereo not drawn) [Example 17] the mortality at 200 ppm [1] was 75%, the mortality at 400 ppm [1] was 90% and the mortality at 800 ppm [1] was 100%. The LD50 [2] was 42.4 mg/kg, the mortality at 100 ppm [3] was 50% and the mortality at 200 ppm [3] was 70%. The mortality at 400 ppm [3] was 100% and the LD50 at 168 h [4] was 300 mg/kg.
In the case of CCOC(=O)CN(SN(C)C(=O)ON=C(C)SC)C(=O)OCC [Example 12], the mortality at 200 ppm [1] is reported as 80%, the mortality at 400 ppm [1] is reported as 100% and the mortality at 800 ppm [1] is reported as 100%. For the same molecule, the LD50 [2] was 28.7 mg/kg, the mortality at 100 ppm [3] was 100% and the mortality at 200 ppm [3] was 100%. For the same molecule, the mortality at 400 ppm [3] was 100% and the LD50 at 168 h [4] was 200 mg/kg.
In the case of Bis(2-chloro-1-methylethyl)ethane, the “Degree of Formation of Nodules” value ([5]; granules (10%) applied at 10 kg/10 a) is reported as 4 (75 to 100%), the “Degree of Formation of Nodules” value ([5]; granules (10%) applied at 25 kg/10 a) is reported as 4 (75 to 100%) and the “Degree of Formation of Nodules” value ([5]; granules (10%) applied at 50 kg/10 a) is reported as 2 (25 to 49%).
CCOC(=O)CCN(CCC(=O)OCC)SN(C)C(=O)ON=C(C)SC [Example 2, S-methyl N-[{N-methyl-N-(N,N-bis(ethoxycarbonylethyl)aminosulfenyl)carbamoyl}oxy]thioacetamidate] gave a mortality at 200 ppm [1] of 60%, a mortality at 400 ppm [1] of 95% and a mortality at 800 ppm [1] of 100%. For the same molecule, the LD50 [2] was 23 mg/kg, the mortality at 100 ppm [3] was 75% and the mortality at 200 ppm [3] was 100%. For the same molecule, the mortality at 400 ppm [3] was 100% and the LD50 at 168 h [4] was 300 mg/kg.
In the case of CCOC(=O)CN(SN(C)C(=O)ON=C(C)SC)C(=O)CC [Example 13], the mortality at 200 ppm [1] is reported as 75%, the mortality at 400 ppm [1] is reported as 100% and the mortality at 800 ppm [1] is reported as 100%. The LD50 [2] was 14.4 mg/kg, the mortality at 100 ppm [3] was 75% and the mortality at 200 ppm [3] was 90%. The mortality at 400 ppm [3] was 100% and the LD50 at 168 h [4] was 200 mg/kg.
With CCCCN(CC(=O)OCC)SN(C)C(=O)ON=C(C)SC [Example 3] the mortality at 200 ppm [1] was 80%, the mortality at 400 ppm [1] was 100% and the mortality at 800 ppm [1] was 100%. It also gave an LD50 [2] of 8.5 mg/kg, a mortality at 100 ppm [3] of 100% and a mortality at 200 ppm [3] of 100%. It also gave a mortality at 400 ppm [3] of 100% and an LD50 at 168 h [4] of 170 mg/kg.
CCOC(=O)CN(SN(C)C(=O)ON=C(C)SC)S(=O)(=O)c1ccc(C)cc1 [Example 14] gave a mortality at 200 ppm [1] of 80%, a mortality at 400 ppm [1] of 100% and a mortality at 800 ppm [1] of 100%. The LD50 [2] was 33.3 mg/kg, the mortality at 100 ppm [3] was 60% and the mortality at 200 ppm [3] was 80%. The mortality at 400 ppm [3] was 100% and the LD50 at 168 h [4] was 250 mg/kg.
CCCCCCCCN(CCC(=O)OCC)SN(C)C(=O)ON=C(C)SC [Example 18] gave a mortality at 200 ppm [1] of 75%, a mortality at 400 ppm [1] of 90% and a mortality at 800 ppm [1] of 100%. For the same molecule, the LD50 [2] was 35.6 mg/kg, the mortality at 100 ppm [3] was 60% and the mortality at 200 ppm [3] was 75%. The mortality at 400 ppm [3] was 100% and the LD50 at 168 h [4] was 270 mg/kg.
For CNC(=O)ON=C(C)SC [Control*, S-methyl N-[(methylcarbamoyl)oxy]thioacetamidate, reference compound], the insecticidal activity (noxious insects) is given as “high insecticidal activity”, the mortality at 200 ppm [1] is given as 90% and the mortality at 400 ppm [1] is given as 100%. The mortality at 800 ppm [1] was 100%, the “toxicity to warm-blooded animals” value (warm-blooded animals) was “high toxicity to warm-blooded animals” and the LD50 [2] was 6.8 mg/kg. For the same molecule, the mortality at 100 ppm [3] was 80% and the LD50 at 168 h [4] was 16 mg/kg.
For CCOC(=O)CCN(SN(C)C(=O)ON=C(C)SC)c1ccc(OC)cc1 [Example 19], the mortality at 200 ppm [1] was 80%, the mortality at 400 ppm [1] was 100% and the mortality at 800 ppm [1] was 100%. The LD50 [2] was 20.1 mg/kg, the mortality at 100 ppm [3] was 75% and the mortality at 200 ppm [3] was 80%. The mortality at 400 ppm [3] was 100% and the LD50 at 168 h [4] was 250 mg/kg.
